Like-named read-outs stand apart in the source and are kept apart here.
Target: Ba/F3 V617F cells (Homo sapiens, UniProt O60674, V617F, cells depend on it)
Test: Proliferation assay (Cell Titer-Glo, 72 h) utilizing Ba/F3 V617F cells
Type: cell-based, mouse
Procedure, shortened: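 Readout is CellTiter-Glo luminescence after 72 h at 37 °C, giving IC50. Cells: Ba/F3 V617F, 1×10^5 cells/mL in RPMI with 10% FBS, treated in duplicate with 3-fold dilution series made from 5 mM DMSO stock, 1:250 in 5% FBS medium, added at 2×.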

[1] = Ba/F3 V617F cells, proliferation, level of activity to inhibit JAK2, read-out: IC50 (the source's name)
[2] = Ba/F3 V617F cells, proliferation, level of activity given as class symbol, read-out: IC50 (the source's name)

Sequence of Ba/F3 V617F cells (O60674 whole entry V617F): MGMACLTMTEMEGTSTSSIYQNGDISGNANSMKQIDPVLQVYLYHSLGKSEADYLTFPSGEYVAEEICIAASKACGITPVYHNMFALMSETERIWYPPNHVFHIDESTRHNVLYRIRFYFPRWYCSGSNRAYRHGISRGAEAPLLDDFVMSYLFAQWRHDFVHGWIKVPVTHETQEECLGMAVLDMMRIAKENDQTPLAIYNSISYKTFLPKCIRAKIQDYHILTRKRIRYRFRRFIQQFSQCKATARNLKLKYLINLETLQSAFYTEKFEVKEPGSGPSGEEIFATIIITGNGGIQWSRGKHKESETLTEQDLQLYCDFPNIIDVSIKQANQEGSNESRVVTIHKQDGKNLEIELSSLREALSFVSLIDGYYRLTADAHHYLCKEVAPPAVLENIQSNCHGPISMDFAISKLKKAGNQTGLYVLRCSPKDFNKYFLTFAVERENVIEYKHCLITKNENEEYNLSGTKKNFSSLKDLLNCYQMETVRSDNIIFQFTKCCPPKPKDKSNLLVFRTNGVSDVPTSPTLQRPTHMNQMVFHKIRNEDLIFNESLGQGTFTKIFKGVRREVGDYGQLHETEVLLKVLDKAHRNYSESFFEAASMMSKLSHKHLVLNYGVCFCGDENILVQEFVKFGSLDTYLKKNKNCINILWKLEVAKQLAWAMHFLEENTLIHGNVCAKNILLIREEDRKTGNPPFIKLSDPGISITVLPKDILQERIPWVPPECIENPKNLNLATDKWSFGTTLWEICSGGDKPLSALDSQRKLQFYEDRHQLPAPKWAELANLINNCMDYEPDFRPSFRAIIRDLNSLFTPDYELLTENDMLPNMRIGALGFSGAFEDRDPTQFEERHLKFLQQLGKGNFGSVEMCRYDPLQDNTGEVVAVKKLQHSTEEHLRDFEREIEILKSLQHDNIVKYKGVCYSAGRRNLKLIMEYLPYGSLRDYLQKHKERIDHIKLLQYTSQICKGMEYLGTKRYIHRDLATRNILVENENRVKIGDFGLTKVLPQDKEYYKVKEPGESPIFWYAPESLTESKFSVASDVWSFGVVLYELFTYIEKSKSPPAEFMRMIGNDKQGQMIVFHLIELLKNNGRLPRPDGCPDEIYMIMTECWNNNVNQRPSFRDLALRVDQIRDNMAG

SMILES	GI50 [1] [nM]	GI50 [2] [nM]	further results
CCN1C[C@@H]2C[C@H]1CN2c1ccc(Nc2nccc(-c3cnc4c(c3)OC3(CCC3)C(=O)N4)n2)cc1C [compound 32, 4-(3′-oxo-3′,4′-dihydrospiro[cyclobutane-1,2′-pyrido[3,2-b][1,4]oxazine]-7′-yl)-N-(3-methyl-4-((1S,4S)-5-ethyl-2,5-diazabicyclo[2.2.1]heptan-2-yl)phenyl)pyrimidin-2-amine]	< 1000		
CN1C[C@H]2C[C@@H]1CN2c1ccc(Nc2nccc(-c3cnc4c(c3)OC(C)(C)C(=O)N4)n2)cc1F [compound 73, 4-(2,2-dimethyl-3-oxo-3,4-dihydro-2H-pyrido[3,2-b][1,4]oxazin-7-yl)-N-(3-fluoro-4-((1R,4R)-5-methyl-2,5-diazabicyclo[2.2.1]heptan-2-yl)phenyl)pyrimidin-2-amine]	< 1000		
Cc1cc(Nc2nccc(-c3cnc4[nH]ccc4c3)n2)ccc1N1C[C@@H]2C[C@H]1CN2CC1CC1 [compound 35, 4-(1H-pyrrolo[2,3-b]pyridin-5-yl)-N-(3-methyl-4-((1S,4S)-5-(cyclopropyl)methyl-2,5-diazabicyclo[2.2.1]heptan-2-yl)phenyl)pyrimidin-2-amine]	< 1000		
CN1C[C@@H]2C[C@H]1CN2c1ccc(Nc2nccc(-c3cnc4c(c3)OC(C)(C)C(=O)N4)n2)cc1F [compound 19, 4-(2,2-dimethyl-3-oxo-3,4-dihydro-2H-pyrido[3,2-b][1,4]oxazin-7-yl)-N-(3-fluoro-4-((1S,4S)-5-methyl-2,5-diazabicyclo[2.2.1]heptan-2-yl)phenyl)pyrimidin-2-amine]	< 1000		
CC(=O)N1CCN(c2ccc(-c3ccnc(Nc4cnc(N5C[C@@H]6C[C@H]5CN6C)c(C)c4)n3)cn2)CC1 [compound 63, 4-(6-(4-acetylpiperazin-1-yl)pyridin-3-yl)-N-(5-methyl-6-((1S,4S)-5-methyl-2,5-diazabicyclo[2.2.1]heptan-2-yl)pyridin-3-yl)pyrimidin-2-amine]			GI50 (inhibition of JAK2 activity, proliferation of Ba/F3 V617F cells, read-out: IC50 (the source's name)): 1000 to 10000 nM

Second part, led by results:

GI50 [1] [nM]	GI50 [2] [nM]	SMILES	further results
	< 1000	Cc1cc(Nc2nccc(-c3ccc(N4CCOCC4)nc3)n2)ccc1N1C2CCC1CC(N(C)C)C2 (stereo not shown) [compound 286, 4-(6-(morpholin-4-yl)pyridin-3-yl)-N-(3-methyl-4-(3-(dimethylamino)-8-azabicyclo[3.2.1]octan-8-yl)phenyl)pyrimidin-2-amine]	
	< 1000	CCCNc1ccc(-c2ccnc(Nc3ccc(N4CC5(C)CN(C)CC(C)(C4)C5)c(C)c3)n2)cn1 [compound 213, 4-(6-(propylamino)pyridin-3-yl)-N-(3-methyl-4-(1,5,7-trimethyl-3,7-diazabicyclo[3.3.1]nonan-3-yl)phenyl)pyrimidin-2-amine]	
1000 to 10000		Cc1cc(Nc2nccc(-c3ccc(C#N)nc3)n2)ccc1N1C2CCC1CC2 [compound 112, 4-(6-cyanopyridin-3-yl)-N-(3-methyl-4-(7-azabicyclo[2.2.1]heptan-7-yl)phenyl)pyrimidin-2-amine]	
	< 1000	CCN1C[C@@H]2C[C@H]1CN2c1ccc(Nc2nccc(-c3ccc4c(ccn4-c4ccncc4)c3)n2)cc1C [compound 234, 4-(1-(pyridin-4-yl)-1H-indol-5-yl)-N-(3-methyl-4-((1S,4S)-5-ethyl-2,5-diazabicyclo[2.2.1]heptan-2-yl)phenyl)pyrimidin-2-amine]	
	< 1000	Cc1cc(Nc2nccc(-c3ccc4c(c3)CCCC(=O)N4)n2)ccc1N1C[C@@H]2C[C@H]1CN2S(C)(=O)=O [compound 243, 4-(2-oxo-2,3,4,5-tetrahydro-1H-benzo[b]azepin-7-yl)-N-(3-methyl-4-((1S,4S)-5-methylsulfonyl-2,5-diazabicyclo[2.2.1]heptan-2-yl)phenyl)pyrimidin-2-amine]	
1000 to 10000		Cc1cc(Nc2nccc(-c3ccc(C#N)nc3)n2)ccc1N1C[C@@H]2C[C@H]1CN2C [compound 111, 4-(6-cyanopyridin-3-yl)-N-(3-methyl-4-((1S,4S)-5-methyl-2,5-diazabicyclo[2.2.1]heptan-2-yl)phenyl)pyrimidin-2-amine]	
< 1000		Cc1cc(Nc2nccc(-c3ccc4nccn4c3)n2)ccc1N1CCN2CCC1C2 (stereo not shown) [compound 123, 4-(imidazo[1,2-a]pyridin-6-yl)-N-(3-methyl-4-(1,4-diazabicyclo[3.2.1]octan-4-yl)phenyl)pyrimidin-2-amine]	
	1000 to 10000	Cc1cc(Nc2nccc(-c3ccc(NCCCN(C)C)nc3)n2)ccc1N1CC2(C)CN(C)CC(C)(C1)C2 [compound 214, 4-(6-(3-dimethylamino)propylaminopyridin-3-yl)-N-(3-methyl-4-(1,5,7-trimethyl-3,7-diazabicyclo[3.3.1]nonan-3-yl)phenyl)pyrimidin-2-amine]	
